Data from US8604206B2, “Compositions for preventing and/or treating degenerative disorders of the central nervous system” (Amicus Therapeutics, Inc., priority 2009, dated 2013).
Where a name gives a salt, the structure may show the parent alone. Read-outs that look alike come from different tables or passages of the source.

Assays:
GCase [1] = target: GCase (Mus musculus, UniProt P17439); assay: GCase enhancement in tissues of orally dosed mice; format: in vivo; details: 9 doses over 2 weeks
Procedure: The ability of orally administered test compounds ((3R,4R,5S)-5-(difluoromethyl)piperidine-3,4-diol, (3R,4R,5S)-5-(1-fluoroethyl)piperidine-3,4-diol, (3R,4R,5S)-5-((R)-1-fluoropropyl)piperidine-3,4-diol hydrochloride, or (3R,4R,5S)-5-benzylpiperidine-3,4-diol) to elevate GCase levels was assessed in mice. For this purpose, 8-week old wild-type male mice (C57BL/6) were administered a […] p.o. (gavage) dose of a compound of the present invention (i.e., (3R,4R,5S)-5-(difluoromethyl)piperidine-3,4-diol, (3R,4R,5S)-5-(1-fluoroethyl)piperidine-3,4-diol, (3R,4R,5S)-5-((R)-1-fluoropropyl)piperidine-3,4-diol hydrochloride, or (3R,4R,5S)-5-benzylpiperidine-3,4-diol). The dosing solutions were prepared in water. Compounds were administered over 2 weeks as follows: week 1, Mon-Fri (On), Sat-Sun (Off); week 2, Mon-Thu (On); necropsy on Friday. Thus, a total of 9 doses (dosing solutions prepared fresh every day) were given to each mouse, with a 24-hour washout between the last dose and necropsy.
Plasma was collected by spinning blood at 2700 g for 10 minutes at 4° C. Liver, spleen, lung, and brain tissues were removed, washed in cold PBS, blotted dry, flash frozen on dry ice, and stored at −80° C. until analysis. GCase levels were measured by homogenizing approximately 50 mg tissue in 500 μL McIlvane (MI) buffer (100 mM sodium citrate, 200 mM sodium phosphate dibasic, 0.25% sodium taurocholate, and 0.1% Triton X-100, pH 5.2) at pH 5.2 for 3-5 seconds on ice with a micro homogenizer. Homogenates were then incubated at room temperature without and with 2.5 mM conduritol-B-epoxide (CBE) for 30 min. Finally, 3.7 mM 4-methylumbeliferryl-β-glucoside (4-MUG) substrate was added and incubated at 37° C. for 60 min. […] Fluorescence was measured on a plate reader for 1 sec/well using 355 nm excitation and 460 nm emission. Total protein was determined in lysates using the MicroBCA kit according to the manufacturer's instructions. A 4-methylumbelliferone (4-MU) standard curve ranging from 1.0 nM to 50 μM was run in parallel for conversion of raw fluorescence data to absolute GCase activity (in the presence and absence of CBE) and expressed as nanomoles of 4-MU released per milligram of protein per hour (nmol/mg protein/hr). GCase levels and protein levels were calculated using Microsoft Excel (Redmond, Wash.) and GraphPad Prism version 4.02.

Rat pharmacokinetics = format: in vivo; details: listed as (3R,4R,5S)-5-(1-fluoroethyl)piperidine-3,4-diol-HCl
Procedure: Pharmacokinetic (PK) data was obtained in rats to assess the bioavailability of test compound. In particular, the following PK parameters were calculated: bioavailability as measured by area under the Concentration/Time curve (AUC), fraction of dose available (% F; further defined below), clearance (CL), volume of distribution (Vd), and half-life (t½). […] Three rats were used per dosing group. Blood was collected over a 24-hr period. The time points for blood collection after intravenous administration were: 0, 2.5, 5, 10, 15, 30, 45 min, 1, 2, 4, 8, 12, and 24 hrs; time points for blood collection after p.o. administrations were: 0, 5, 15, 30, 45 min, 1, 2, 3, 4, 8, 12, and 24 hrs. Plasma samples were analyzed for compound levels by LC-MS/MS at PPD. Raw data was analyzed by non-compartmental analysis in Win-nonLin to calculate VD, % F, CL, and t1/2.

GCase [2] = target: GCase (Homo sapiens (Human), UniProt P04062); assay: GCase activity enhancement (EC50, Emax) of Table 2B; format: cell-based; details: for increase in GCase activity compared to IFG-tartrate: compared to reference compound IFG-tartrate
[3] = Blood brain barrier penetration, plasma and brain levels after oral administration; format: in vivo, mouse; details: mice, single 30 mg/kg (free base equivalent) p.o.
Procedure: For this purpose, 8-week old wild-type male mice (C57BL/6) were administered a single 30 mg/kg (free base equivalent) p.o. dose of reference or test compound by gavage (n=3 mice per time point). Dosing solutions were prepared in water. After dosing, mice were euthanized with CO2 at the following time points: 0-, 0.5-, 1-, and 4-hour post-dose. […] Similarly, brains were collected from each mouse. Plasma was derived by spinning whole blood at 2,700×g for 10 minutes at 4° C. followed by storage on dry ice. Whole brains were washed in cold PBS to remove contaminating blood, blotted dry, flash frozen on dry ice, and ultimately stored at −80° C. until analysis. To prepare brain samples for analysis, 50-100 mg of tissue was homogenized in […] of water/mg tissue. Samples were then clarified by centrifugation. Next, 25 μl of the brain homogenate supernatant or 25 μl of plasma were combined with 25 μl of acetonitrile:water (95/5). […] Samples were again clarified by centrifugation and 75 μl of the supernatant was combined with 75 μl of acetonitrile. Samples were then analyzed for compound levels by LC-MS/MS at PPD Inc. (3230 Deming Way, Middleton, Wis. 53562). In brief, a Thermo Betasil, Silica-100, 50×3 mm, 5μ column equilibrated with a mixture of mobile phase consisting of 5 mM ammonium formate and 0.05% formic acid in (A) 95:5 acetonitrile:water or (B) 70:20:10 methanol:water:acetonitrile was employed. Between 20 and 30 μl sample was injected for analysis. For calculating drug concentrations, raw data for plasma (ng/mL) and brain (ng/g) was converted to nM using the molecular weight of respective compounds and assuming 1 g of tissue is equivalent to 1 mL volume. Concentration as a function of time was plotted in GraphPad Prism version 4.02.

lysosomal GCase = lysosomal GCase (Homo sapiens (Human), UniProt P04062); assay: In situ lysosomal GCase inhibition and washout assay in fibroblasts from a normal subject; format: cell-based; details: for in situ washout: fibroblasts treated at IC90, then drug-free medium; for IC50: fibroblasts, 16-24 hours with compound, PFBFDβGlu substrate
Procedure: The effect of the novel compounds of the present invention on lysosomal GCase activity was assayed in situ using fibroblasts established from a normal subject. Cells seeded in 48-well plates were incubated with the indicated concentrations of compound for 16-24 hours. For the dose-response assays, cells were incubated with the in situ substrate 5-(pentafluorobenzoylamino)fluorescein di-β-D-glucopyranoside (PFBFDβGlu) for 1 hour and subsequently lysed to determine the extent of substrate hydrolysis in the presence of compound. […] Inhibition was determined as the ratio of activity in the presence of compound to that in the absence of compound. […] Cells were washed extensively and incubated in drug-free medium to allow net compound efflux from cells. Cells were then tested for lysosomal GCase activity at 2 hour intervals over a total period of 8 hours following compound removal. The increase in activity over time was fitted with a single exponential function to determine the compound's washout time.

[4] = target: recombinant human GCase (rhGCase; Cerezyme®) (Homo sapiens (Human), UniProt P04062, R534H); assay: In vitro enzyme inhibition assay (4-MU-β-D-Glc substrate), inhibition constants; format: biochemical
Procedure: The binding affinity (defined here by Ki binding constant) of GCase for novel compounds of the present invention were empirically determined using enzyme inhibition assays. In brief, the enzyme inhibition assays used monitored the ability of a test compound to bind and prevent the hydrolysis of a fluorogenic substrate in a concentration-dependent mariner. Specifically, the enzyme activity of recombinant human GCase (rhGCase; Cerezyme®, Genzyme Corp.) was measured using the 4-methylumbelliferyl-β-D-glucopyranoside (4-MU-β-D-Glc) fluorogenic substrate in the absence or in the presence of varying amounts of each test compound. […] The enzyme inhibition assays were performed at both pH 7.0 (endoplasmic reticulum pH) and at pH 5.2 (lysosomal pH) to gain insight into the binding affinity (i.e., potency) of compounds for GCase in the endoplasmic reticulum and lysososome.
Various concentrations of test compounds were prepared in buffer “M” consisting of 50 mM sodium phosphate buffer with 0.25% sodium taurocholate at pH 7.0 and pH 5.2. Enzyme (Cerezyme®, a recombinant form of the human enzyme β-glucocerebrosidase) was also diluted in the same buffer “M” at pH 7.0 and pH 5.2. […] Five microliters of diluted enzyme was added to 15 μl of the various inhibitor concentrations or buffer “M” alone and incubated at 37° C. for 1 hour with 50 μl of the substrate preparation to assess β-glucosidase activity at pH 7.0 and pH 5.2. […] Fluorescence was measured on a plate reader for 1 sec/well using 355 nm excitation and 460 nm emission.

[5] = pH 5.2, Cheng-Prusoff from IC50, read-out: Ki (μM) pH 5.2
[6] = pH 5.2, read-out: IC50 (μM) pH 5.2
[7] = pH 7.0, Cheng-Prusoff from IC50, read-out: Ki (μM) pH 7.0
[8] = pH 7.0, read-out: IC50 (μM) pH 7.0
[9] = pH 5.2, repeated in Table 3A, read-out: Ki pH 5.2
[10] = pH 5.2, repeated in Table 3B, read-out: Ki pH 5.2

Sequence of GCase (Homo sapiens (Human), UniProt P04062) (P04062 40-536): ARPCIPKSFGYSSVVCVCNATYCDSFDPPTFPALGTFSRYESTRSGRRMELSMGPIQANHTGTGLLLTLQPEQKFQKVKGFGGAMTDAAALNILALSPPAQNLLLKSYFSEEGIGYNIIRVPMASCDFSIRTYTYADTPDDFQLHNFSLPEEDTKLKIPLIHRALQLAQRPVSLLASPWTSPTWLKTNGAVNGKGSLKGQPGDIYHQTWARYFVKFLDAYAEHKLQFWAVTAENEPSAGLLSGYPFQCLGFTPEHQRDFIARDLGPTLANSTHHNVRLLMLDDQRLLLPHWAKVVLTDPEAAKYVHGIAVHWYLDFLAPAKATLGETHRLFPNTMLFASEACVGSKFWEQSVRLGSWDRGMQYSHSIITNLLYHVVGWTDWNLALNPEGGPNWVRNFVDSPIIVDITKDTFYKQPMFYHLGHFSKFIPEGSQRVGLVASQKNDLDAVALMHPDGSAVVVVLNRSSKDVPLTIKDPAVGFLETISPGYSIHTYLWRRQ
Sequence of lysosomal GCase (P04062 40-536): as above
Sequence of recombinant human GCase (rhGCase; Cerezyme®) (P04062 40-536 R534H limits assumed): as the sequence (P04062 40-536) above, with R495H counted along it
Sequence of GCase (Mus musculus, UniProt P17439) (P17439 20-515 limits assumed): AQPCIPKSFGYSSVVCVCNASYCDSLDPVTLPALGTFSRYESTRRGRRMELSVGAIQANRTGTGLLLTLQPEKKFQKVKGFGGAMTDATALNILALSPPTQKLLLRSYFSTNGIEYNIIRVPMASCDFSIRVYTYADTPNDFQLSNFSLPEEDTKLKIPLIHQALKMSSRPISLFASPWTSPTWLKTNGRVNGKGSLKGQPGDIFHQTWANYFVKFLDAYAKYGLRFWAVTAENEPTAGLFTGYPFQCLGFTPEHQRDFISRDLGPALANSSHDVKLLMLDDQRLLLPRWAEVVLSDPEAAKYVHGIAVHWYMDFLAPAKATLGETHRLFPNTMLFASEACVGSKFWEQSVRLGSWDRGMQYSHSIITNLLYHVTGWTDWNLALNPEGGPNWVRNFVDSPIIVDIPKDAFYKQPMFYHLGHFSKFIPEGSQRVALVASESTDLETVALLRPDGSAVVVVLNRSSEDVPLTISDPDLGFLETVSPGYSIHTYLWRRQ

| SMILES | in situ washout (lysosomal GCase) [h] | EC50 (GCase [2]) [µM] | Ki [4, 5] [µM] | IC50 [4, 6] [µM] | Ki [4, 7] [µM] | IC50 [4, 8] [µM] | IC50 (lysosomal GCase) [µM] | also measured |
| --- | --- | --- | --- | --- | --- | --- | --- | --- |
| CC(F)[C@H]1CNC[C@@H](O)[C@@H]1O (single isomer, unassigned) | – | – | – | – | – | – | – | GCase increase (fold) (GCase [1]; brain, 10 mg/kg FBE p.o., 24-hour washout): 1.5 fold; GCase enhancement in brain and spleen (GCase [1]; mice, p.o.): significant GCase enhancement in brain and spleen; AUClast (hr*ng/ml), AUC0-24 hr (Rat pharmacokinetics; IV, 3 mg/kg free base): 1370 ± 109 ng·h/mL; CL (Rat pharmacokinetics; IV, 3 mg/kg free base): 2.188 ± 0.173 L/h/kg; Cmax (Rat pharmacokinetics; IV, 3 mg/kg free base): 2.427 ± 0.192 µg/mL; VD (Rat pharmacokinetics; IV, 3 mg/kg free base): 6.304 ± 0.927 L/kg; t1/2 (Rat pharmacokinetics; IV, 3 mg/kg free base): 2.06 ± 0.47 h; AUClast (hr*ng/ml), AUC0-24 hr (Rat pharmacokinetics; PO, 10 mg/kg free base): 4251 ± 88 ng·h/mL; t1/2 (Rat pharmacokinetics; PO, 10 mg/kg free base): 3.0 ± 0.22 h; AUClast (hr*ng/ml), AUC0-24 hr (Rat pharmacokinetics; PO, 30 mg/kg free base): 14229 ± 127 ng·h/mL; Cmax (Rat pharmacokinetics; PO, 30 mg/kg free base): 4.68 ± 0.369 µg/mL; AUClast (hr*ng/ml), AUC0-24 hr (Rat pharmacokinetics; PO, 100 mg/kg free base): 50946 ± 713 ng·h/mL; Cmax (Rat pharmacokinetics; PO, 100 mg/kg free base): 15.733 ± 0.622 µg/mL; t1/2 (Rat pharmacokinetics; PO, 100 mg/kg free base): 2.4 ± 0.16 h; increase in GCase activity compared to IFG-tartrate (GCase [2]): enhanced enzyme activity to the same maximum level as reference compound IFG-tartrate at much lower concentration; blood brain barrier crossing compared to IFG-tartrate [3]: crossed the blood brain barrier more readily as compared to IFG-tartrate; levels detected in brain compared to IFG-tartrate [3]: higher levels; inhibition of GCase activity (lysosomal GCase): inhibited GCase activity; in situ washout from the lysosomal compartment compared to IFG-tartrate (lysosomal GCase; compared to reference compound IFG-tartrate): considerably faster than reference compound IFG-tartrate |
| C[C@@H](F)[C@@H]1CNC[C@@H](O)[C@@H]1O.Cl [Cmpd 14] | 3.7 ± 0.63 | – | – | – | – | – | – | Emax (%) (GCase [2]): 89.7 ± 3.5% |
| CC(O)[C@H]1CNC[C@@H](O)[C@@H]1O (single isomer, unassigned) [Cmpd 9] | 10.5 ± 1.75 | 0.49 ± 0.06 | 0.044 ± 0.0017 | 0.107 ± 0.0041 | 0.01 ± 0.0004 | 0.02 ± 0.0008 | 0.518 ± 0.022 | Emax (GCase [2]): 83.7 ± 2.9% |
| CC(O)[C@H]1CNC[C@@H](O)[C@@H]1O (single isomer, unassigned) | – | – | – | – | – | – | – | increase in GCase activity compared to IFG-tartrate (GCase [2]): enhanced enzyme activity to the same maximum level as reference compound IFG-tartrate at much lower concentration; inhibition of GCase activity (lysosomal GCase): inhibited GCase activity |
| O[C@@H]1[C@@H]([C@H](O)c2ccccc2)CNC[C@H]1O [(3R,4R,5R)-5-((S)-hydroxy(phenyl)methyl)-piperidine-3,4-diol] | – | 4.99 ± 0.86 | 1.36 ± 0.1 | 3.29 ± 0.25 | 0.0089 ± 0.0018 | 0.017 ± 0.0035 | – | Ki [4, 9]: 1.36 ± 0.1 µM; Ki [4, 10]: 1.36 ± 0.1 µM |
| C[C@@H](F)[C@@H]1CNC[C@@H](O)[C@@H]1O.Cl [Cmpd 14, (3R,4R,5R)-5((R)-(1-Fluoroethyl)piperidine 3,4-diol Hydrochloride] | – | 0.026 ± 0.003 | 0.016 ± 0.0007 | 0.038 ± 0.0016 | 0.004 ± 0.0001 | 0.007 ± 0.0003 | 0.061 ± 0.019 | – |
| CC(C)(O)[C@H]1CNC[C@@H](O)[C@@H]1O [(3R,4R,5S)-5-(2-hydroxypropan-2-yl)piperidine-3,4-diol] | – | 0.791 ± 0.162 | 0.097 ± 0.0015 | 0.234 ± 0.0037 | 0.015 ± 0.0007 | 0.029 ± 0.0013 | – | Ki [4, 9]: 0.097 ± 0.0015 µM; Ki [4, 10]: 0.097 ± 0.0015 µM |
| C[C@H](O)[C@H]1CNC[C@@H](O)[C@@H]1O (single isomer, unassigned) [Cmpd 10] | 12 ± 1.65 | 1.06 ± 0.12 | 0.142 ± 0.0088 | 0.343 ± 0.021 | 0.035 ± 0.0021 | 0.066 ± 0.0041 | 0.798 ± 0.043 | – |
| C[C@H](F)C1CNC[C@@H](O)[C@@H]1O (stereo in doubt) [Cmpd 13, (3R,4R,5R)-5((S)-1-Fluoroethyl)piperidine 3,4-diol Hydrochloride] | 2.7 ± 0.12 | – | – | – | – | – | – | – |
